# Reference: ChEMBL document CHEMBL5543059, “Discovery of anti-inflammatory natural flavonoids: Diverse scaffolds and promising leads for drug discovery” (Eur J Med Chem, 2023)
# What was measured:
# [1] = tested on: RAW264.7; assay: Antiinflammatory activity against mouse RAW264.7 cells assessed as inhibition of LPS-stimulated TNF-alpha level by ELISA method; format: functional, cell-based
# [2] = tested on: J774.A1; assay: Antiinflammatory activity against mouse J774.A1 cells assessed as inhibition of LPS-stimulated TNF-alpha level by ELISA method; format: functional, cell-based
# [3] = tested on: RAW264.7; assay: Anti-inflammatory activity in mouse RAW264.7 cells assessed as inhibition of LPS-induced nitric oxide production preincubated for 2 hrs followed by LPS stimulation and measured after 24 hrs by Griess assay; format: functional, cell-based
# [4] = tested on: Neutrophil; assay: Inhibition of fMLF/CB-induced human Neutrophil activation assessed as reduction in superoxide anion at 10 uM relative to control; format: functional; parameters: scale not given: the % may be the effect or the level left
# [5] = Inhibition of TNF-alpha induced NF-kappaB activation in HEK293-A cells incubated for 15 mins by Western blot analysis; format: cell-based; settings: Homo sapiens, HEK293, 0.25 h
# [6] = tested on: HEK293; assay: Anti-inflammatory activity against TNFalpha-induced HEK293 cells assessed as inhibition of NF-kappaB activity pre-indubated for 1 hr followed by TNFalpha treatment measured for 5 hrs by luciferase based assay; format: functional, cell-based; settings: Homo sapiens
# [7] = tested on: Mus musculus; assay: Antiinflammatory activity against TPA-induced mouse ear edema model assessed as reduction in NO production measured after 4 hrs; format: functional, organism-based
# [8] = tested on: RAW264.7; assay: Antiinflammatory activity against mouse RAW264.7 cells assessed as reduction of LPS-induced NO production; format: functional, cell-based
# [9] = tested on: BV-2; assay: Antineuroinflammatory activity in LPS-induced mouse BV-2 cells assessed as inhibition of NO production pre-incubated for 2 hr followed by LPS-stimulation measured for 24 hrs by Griess reagent based analysis; format: functional, cell-based
# [10] = molecular target: T1, Polyunsaturated fatty acid 5-lipoxygenase (Homo sapiens) (UniProt P09917); assay: Inhibition of 5-Lipoxygenase (unknown origin) at 30 uM relative to control
# T1 sequence (whole entry): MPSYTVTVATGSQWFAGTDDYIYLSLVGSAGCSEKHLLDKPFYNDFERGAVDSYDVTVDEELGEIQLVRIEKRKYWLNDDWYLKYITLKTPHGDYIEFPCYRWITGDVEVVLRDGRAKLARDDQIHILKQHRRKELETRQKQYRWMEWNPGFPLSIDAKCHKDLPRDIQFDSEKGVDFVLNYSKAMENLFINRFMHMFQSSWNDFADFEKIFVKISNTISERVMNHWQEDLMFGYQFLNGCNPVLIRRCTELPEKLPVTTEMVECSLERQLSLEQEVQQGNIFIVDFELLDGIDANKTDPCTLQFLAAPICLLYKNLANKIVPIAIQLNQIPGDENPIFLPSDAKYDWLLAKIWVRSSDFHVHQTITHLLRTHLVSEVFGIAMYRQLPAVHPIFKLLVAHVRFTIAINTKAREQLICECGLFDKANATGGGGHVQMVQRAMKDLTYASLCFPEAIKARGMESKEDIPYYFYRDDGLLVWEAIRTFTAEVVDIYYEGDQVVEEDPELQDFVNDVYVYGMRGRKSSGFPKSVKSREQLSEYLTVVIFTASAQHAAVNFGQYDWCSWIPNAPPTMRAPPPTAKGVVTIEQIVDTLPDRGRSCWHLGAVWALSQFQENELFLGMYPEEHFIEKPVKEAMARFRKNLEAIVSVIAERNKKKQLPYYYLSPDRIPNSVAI
# [11] = tested on: RAW264.7; assay: Anti-inflammatory activity in mouse RAW264.7 cells assessed as inhibition of LPS-induced NO production at 20 uM by Griess reagent based analysis relative to control; format: functional; parameters: scale not given: the % may be the effect or the level left
# [12] = Antioxidant activity assessed as DPPH radical scavenging activity measured for 30 mins; format: functional
# [13] = Antioxidant activity assessed as ABTS radical scavenging activity incubated for 40 mins; format: functional
# [14] = tested on: RAW264.7; assay: Anti-inflammatory activity in LPS-stimulated mouse RAW264.7 cells assessed as inhibition of NO production incubated for 24 hrs by Griess reagent based assay; format: functional, cell-based; settings: RAW264.7, 24 h
# [15] = tested on: BV-2; assay: Antiinflammatory activity in mouse BV-2 cells assessed as reduction in LPS-induced NO production pre-treated with compound for 1 hr followed by LPS-stimulation and measured for 23 hrs by Griess reagent based analysis; format: functional, cell-based
# [16] = tested on: Mus musculus; assay: Antiinflammatory activity against TPA-induced CD-1 mouse ear edema model assessed as reduction in ear edema at 1 uM relative to control; format: functional; parameters: scale not given: the % may be the effect or the level left
# [17] = tested on: Mus musculus; assay: Anti-inflammatory activity in mouse model of xylene-induced auricle edema assessed as inhibition of ear swelling at 50 mg/kg, IG pre-treated for 1 hr followed by xylene addition and measured after 1 hr relative to control; format: functional; parameters: scale not given: the % may be the effect or the level left
# [18] = tested on: J774.A1; assay: Anti-inflammatory activity in mouse J774.A1 cells assessed as suppression of LPS-induced IL-6 production by ELISA analysis; format: functional, cell-based
# [19] = tested on: BV-2; assay: Anti-inflammatory activity in mouse BV-2 cells assessed as inhibition of LPS-induced NO production preincubated with compound for 1 hrs followed by LPS stimulation and measured after 24 hrs by Griess reagent based assay; format: functional, cell-based
# [20] = tested on: RAW264.7; assay: Antiinflammatory activity in mouse RAW264.7 cells assessed as suppression of LPS-induced iNOS expression preincubated with compound for 1 hrs followed by LPS-stimulation and measured after 24 hrs by Western blot analysis; format: functional, cell-based
# [21] = tested on: Peritoneal macrophage; assay: Antiinflammatory activity in mouse peritoneal macrophages assessed as fold reduction in LPS-induced TNFalpha level at 20 uM incubated for 4 hrs by ELISA method; format: functional
# [22] = tested on: BV-2; assay: Anti-inflammatory activity in mouse BV-2 cells assessed as reduction in LPS-induced NO production pretreated for 1 hr followed by LPS-stimulation and measured after 18 hrs by 2,3-diaminonaphthalene reagent based fluorescence analysis; format: functional, cell-based
# [23] = tested on: THP-1; assay: Anti-inflammatory activity in human THP-1 cells assessed as inhibition of LPS-stimulated NO production by ELISA analysis; format: functional, cell-based
# [24] = tested on: BV-2; assay: Anti-inflammatory activity in mouse BV-2 cells assessed as reduction in LPS-induced NO production; format: functional, cell-based
# [25] = tested on: RAW264.7; assay: Anti-inflammatory activity in mouse RAW264.7 cells assessed as reduction in LPS-induced NO production by ELISA analysis; format: functional, cell-based
# [26] = tested on: Peritoneal macrophage; assay: Anti-inflammatory activity against LPS-stimulated mouse peritoneal macrophage assessed as reduction in nitric oxide production; format: functional, cell-based
# [27] = tested on: Neutrophil; assay: Inhibition of fMLF/CB-induced human Neutrophil activation assessed as reduction in elastase release; format: functional, cell-based
# [28] = tested on: Neutrophil; assay: Inhibition of fMLF/CB-induced human Neutrophil activation assessed as reduction in superoxide anion; format: functional, cell-based
# [29] = tested on: BMDM; assay: Antiinflammatory activity in LPS-stimulated mouse BMDM cells assessed as inhibition of NF-kappaB signalling pathway incubated for 3 hrs by Western blot analysis; format: functional, cell-based
# [30] = tested on: RAW264.7; assay: Anti-inflammatory activity in mouse RAW264.7 cells assessed as inhibition of LPS-induced iNOS mRNA expression; format: functional, cell-based
# [31] = tested on: Neutrophil; assay: Inhibition of fMLF/CB-induced human Neutrophil activation assessed as reduction in superoxide anion generation pre-incubated for 2 mins prior to CB induction for 3 mins followed by fMLF addition by spectrophotometric analysis; format: functional, cell-based
# [32] = tested on: Neutrophil; assay: Inhibition of fMLF/CB-induced human Neutrophil activation assessed as reduction in elastase release using MeO-Suc-Ala-Ala-Pro-Val-pnitroanilide as substrate pre-incubated for 2 mins followed by fMLF/CB-stimulation and measured for 5 mins; format: functional, cell-based
smiles,measurement,setting,value
COc1cc(O)c2c(c1CC=C(C)C)OC(c1ccccc1)CC2=O (stereo not drawn),IC50,[1],41.2 µM
same,IC50,[2],35.5 µM
CC1(C)C=Cc2cc(-c3coc4cc(O)cc(O)c4c3=O)cc(O)c2O1,IC50,[3],20 µM
CC(C)=CCc1c(O)ccc(-c2coc3c(CC=C(C)C)c(O)cc(O)c3c2=O)c1O,IC50,[3],0.25 µM
CC1(C)C=Cc2c(O)ccc(-c3coc4cc(O)cc(O)c4c3=O)c2O1,IC50,[3],0.8 µM
COc1cc(O)c2c(=O)c(-c3ccc(O)c(OC)c3)coc2c1,Activity,[4],49%
C=C1C(=O)O[C@@H]2C3O[C@]3(C)CC/C=C(\C)CC[C@@H]12 (stereo partly drawn),IC50,[5],1.5 µM
same,IC50,[6],1.5 µM
CC(C)=CCC/C(C)=C/Cc1c(O)cc2oc(-c3ccc(O)cc3)cc(=O)c2c1O,IC50,[7],4.1 µg/mL
C=C(C)[C@H](O)CC/C(C)=C/Cc1c(O)cc2oc(-c3ccc(O)cc3)cc(=O)c2c1O,IC50,[7],3.5 µg/mL
CC(C)=CCc1cc([C@@H]2CCc3ccc(O)cc3O2)ccc1O,IC50,[8],28.4 µM
CC(C)(O)[C@@H]1Cc2cc(/C=C/C(=O)c3ccc4c(c3O)C[C@H](C(C)(C)O)O4)ccc2O1,IC50,[9],12.4 µM
COc1cc(-c2cc(=O)c3c(O)c(OC)c(O)cc3o2)c(O)cc1O,inhibition,[10],46.9%
same,Activity,[11],54%
COc1c(O)ccc2c(=O)cc(-c3ccc(O)c(O)c3)oc12,IC50,[12],5 µM
same,IC50,[13],7.9 µM
same,IC50,[14],27.7 µM
CC(C)(O)CCc1c(O)ccc(C(=O)/C=C/c2ccc3c(c2)C[C@@H](C(C)(C)O)O3)c1O,IC50,[9],3.25 µM
CC(=O)O[C@@H]1c2c(ccc3c(=O)c(O)c(-c4ccccc4)oc23)OC(C)(C)[C@@H]1OC(C)=O,IC50,[15],11.3 µM
same,Activity,[16],12.28%
COc1ccc(-c2cc(=O)c3c(OC)c(OC)c(OC)cc3o2)cc1,Activity,[17],42.8%
O=C1O[C@H]([C@@H](O)CO)C(O)=C1O [ASCORBIC ACID],IC50,[12],2.1 µM
same,IC50,[13],3.3 µM
COc1cc(O)c2c(=O)c(OC)c(-c3ccc(OC)c(O)c3)oc2c1 [AYANIN],IC50,[18],17.8 µM
same,IC50,[19],25.1 µM
CC1=C(O)C(=O)C=C2C1=CC=C1[C@@]2(C)CC[C@@]2(C)[C@@H]3C[C@](C)(C(=O)O)CC[C@]3(C)CC[C@]12C [CELASTROL],IC50,[20],1 µM
COc1cc(-c2cc(=O)c3c(O)cc(O)cc3o2)ccc1O [CHRYSOERIOL],IC50,[20],3.1 µM
COc1cc2oc(-c3ccc(O)c(O)c3)cc(=O)c2c(O)c1OC [CIRSILIOL],inhibition,[10],48.5%
same,Activity,[11],54%
O=C(O)Cc1ccccc1Nc1c(Cl)cccc1Cl [DICLOFENAC],fold change (FC),[21],1.8
COc1ccc2c(c1)c(CC(=O)O)c(C)n2C(=O)c1ccc(Cl)cc1 [INDOMETHACIN],IC50,[22],55.4 µM
same,IC50,[23],19.4 µM
same,IC50,[24],15.2 µM
same,IC50,[25],17.6 µM
same,IC50,[26],148 µM
same,IC50,[14],8.5 µM
COc1ccc(-c2coc3cc(O)c(OC)c(O)c3c2=O)cc1 [IRISOLIDONE],IC50,[26],23.6 µM
CC(C)=CCc1c([C@@H]2CCc3ccc(O)cc3O2)cc2c(c1O)OC(C)(C)C=C2 [KAZINOL B],IC50,[8],29.3 µM
O=c1cc(N2CCOCC2)oc2c(-c3ccccc3)cccc12 [LY-294002],IC50,[27],3.2 µM
same,IC50,[28],1.1 µM
same,Activity,[4],96.5%
CC(C)(O)c1ccccc1CC[C@@H](SCC1(CC(=O)O)CC1)c1cccc(/C=C/c2ccc3ccc(Cl)cc3n2)c1 [MONTELUKAST],IC50,[18],8.7 µM
COc1c(O)cc2oc(-c3ccccc3)cc(=O)c2c1O [OROXYLIN A],IC50,[5],3.9 µM
CC(C)=CCc1c2c(c3occ(-c4ccc(O)cc4)c(=O)c3c1O)C=CC(C)(C)O2 [OSAJIN],IC50,[29],12 µg/mL
same,IC50,[30],7.2 µg/mL
same,fold change (FC),[21],1.8
CC(C)=CCc1c2c(c3occ(-c4ccc(O)c(O)c4)c(=O)c3c1O)C=CC(C)(C)O2 [POMIFERIN],IC50,[29],13 µg/mL
same,IC50,[30],6.4 µg/mL
same,fold change (FC),[21],1.5
COc1ccc(-c2cc(=O)c3c(OC)c(OC)c(OC)cc3o2)cc1OC [SINENSETIN],Activity,[17],58%
COc1cc(O)c2c(=O)cc(-c3ccc(O)c(OC)c3)oc2c1 [VELUTIN],IC50,[31],≤ 12.5 µM
same,IC50,[32],≤ 15.2 µM
COc1c(O)cc(O)c2c(=O)cc(-c3ccccc3)oc12 [WOGONIN],IC50,[6],28.1 µM
